Data published in PubChem BioAssay (NCI).
Where “and” joins values, the source holds several entries; their conditions need not be identical. Equal values may be shown once.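 Values below derive from 48-hour exposures of cells grown in 96-well plates, with endpoints linearly interpolated between the two concentrations bracketing the appropriate inhibition level. GI50 is the concentration that inhibits growth by half. The concentration for full growth arrest is given as TGI.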

What was measured:
Test in all cases: NCI tumour cell line growth inhibition, 48 h; in the data active = GI50 below about 0.43 µM; inactive = the rest
IGROV1 ovarian = tested on: IGROV1 ovarian
SN12C renal = tested on: SN12C renal
M14 melanoma = tested on: M14 melanoma
UACC-62 melanoma = tested on: UACC-62 melanoma
HCT-116 colon = tested on: HCT-116 colon
DU-145 prostate = tested on: DU-145 prostate
RXF 393 renal = tested on: RXF 393 renal
SK-MEL-5 melanoma = tested on: SK-MEL-5 melanoma
HCC-2998 colon = tested on: HCC-2998 colon
OVCAR-3 ovarian = tested on: OVCAR-3 ovarian
COLO 205 colon = tested on: COLO 205 colon
KM12 colon = tested on: KM12 colon
SK-MEL-28 melanoma = tested on: SK-MEL-28 melanoma
OVCAR-8 ovarian = tested on: OVCAR-8 ovarian
K-562 leukemia = tested on: K-562 leukemia
786-0 renal = tested on: 786-0 renal
HT29 colon = tested on: HT29 colon
SF-539 CNS = tested on: SF-539 CNS
SNB-19 CNS = tested on: SNB-19 CNS
HCT-15 colon = tested on: HCT-15 colon
CCRF-CEM leukemia = tested on: CCRF-CEM leukemia
SR leukemia = tested on: SR leukemia
HL-60(TB) leukemia = tested on: HL-60(TB) leukemia
NCI/ADR-RES ovarian = tested on: NCI/ADR-RES ovarian
A498 renal = tested on: A498 renal
UACC-257 melanoma = tested on: UACC-257 melanoma
PC-3 prostate = tested on: PC-3 prostate
MOLT-4 leukemia = tested on: MOLT-4 leukemia
HOP-62 NSCLC = tested on: HOP-62 NSCLC
CAKI-1 renal = tested on: CAKI-1 renal
NCI-H226 lung = tested on: NCI-H226 lung
NCI-H460 lung = tested on: NCI-H460 lung
MDA-MB-231 breast = tested on: MDA-MB-231 breast
MCF7 breast = tested on: MCF7 breast
SK-OV-3 ovarian = tested on: SK-OV-3 ovarian
ACHN renal = tested on: ACHN renal
LOX IMVI melanoma = tested on: LOX IMVI melanoma
SF-268 CNS = tested on: SF-268 CNS
MDA-MB-435 = tested on: MDA-MB-435
SK-MEL-2 melanoma = tested on: SK-MEL-2 melanoma
OVCAR-4 ovarian = tested on: OVCAR-4 ovarian
EKVX NSCLC = tested on: EKVX NSCLC
SNB-75 CNS = tested on: SNB-75 CNS
T-47D breast = tested on: T-47D breast
SW-620 colon = tested on: SW-620 colon
RPMI-8226 leukemia = tested on: RPMI-8226 leukemia
BT-549 breast = tested on: BT-549 breast
OVCAR-5 ovarian = tested on: OVCAR-5 ovarian
HS 578T breast = tested on: HS 578T breast
A549 NSCLC = tested on: A549 NSCLC
TK-10 renal = tested on: TK-10 renal
UO-31 renal = tested on: UO-31 renal
MALME-3M melanoma = tested on: MALME-3M melanoma
NCI-H23 lung = tested on: NCI-H23 lung
MDA-N = tested on: MDA-N
U251 CNS = tested on: U251 CNS
SF-295 CNS = tested on: SF-295 CNS
NCI-H522 lung = tested on: NCI-H522 lung
HOP-92 NSCLC = tested on: HOP-92 NSCLC

CCOC(=O)/C(C(=O)c1ccc[nH]1)=C1/CCCN1C
> 100 µM: TGI (IGROV1 ovarian) | TGI (SN12C renal) | TGI (M14 melanoma) | TGI (UACC-62 melanoma) | TGI (HCT-116 colon) | TGI (DU-145 prostate) | TGI (RXF 393 renal) | TGI (SK-MEL-5 melanoma) | TGI (HCC-2998 colon) | TGI (OVCAR-3 ovarian) | TGI (COLO 205 colon) | TGI (KM12 colon) | TGI (SK-MEL-28 melanoma) | TGI (OVCAR-8 ovarian) | TGI (K-562 leukemia) | TGI (786-0 renal) | TGI (HT29 colon) | TGI (SF-539 CNS) | TGI (SNB-19 CNS) | TGI (HCT-15 colon) | TGI (CCRF-CEM leukemia) | TGI (SR leukemia) | TGI (HL-60(TB) leukemia) | TGI (NCI/ADR-RES ovarian) | TGI (A498 renal) | TGI (UACC-257 melanoma) | TGI (PC-3 prostate) | TGI (MOLT-4 leukemia) | TGI (HOP-62 NSCLC) | TGI (CAKI-1 renal) | TGI (NCI-H226 lung) | TGI (NCI-H460 lung) | TGI (MDA-MB-231 breast) | TGI (MCF7 breast) | TGI (SK-OV-3 ovarian) | TGI (ACHN renal) | TGI (LOX IMVI melanoma) | TGI (SF-268 CNS) | TGI (MDA-MB-435) | TGI (SK-MEL-2 melanoma) | TGI (OVCAR-4 ovarian) | TGI (EKVX NSCLC) | TGI (SNB-75 CNS) | TGI (T-47D breast) | TGI (SW-620 colon) | TGI (RPMI-8226 leukemia) | TGI (BT-549 breast) | TGI (OVCAR-5 ovarian) | TGI (HS 578T breast) | TGI (A549 NSCLC) | TGI (TK-10 renal) | TGI (UO-31 renal) | TGI (MALME-3M melanoma) | TGI (NCI-H23 lung) | TGI (MDA-N) | TGI (U251 CNS) | TGI (SF-295 CNS)

O=C1OC(c2ccccc2)=N/C1=C\c1ccccc1
> 100 µM and 56.8 µM: TGI (RPMI-8226 leukemia)
46.8 µM: TGI (SK-MEL-2 melanoma)
82.5 µM and > 100 µM: TGI (SF-268 CNS)
> 100 µM and 76.9 µM: TGI (NCI/ADR-RES ovarian)
73.4 µM and > 100 µM: TGI (SR leukemia)
55.2 µM and 40.8 µM: TGI (SF-539 CNS)
59.7 µM and > 100 µM: TGI (UACC-257 melanoma)
> 100 µM and 58.2 µM: TGI (NCI-H226 lung)
> 100 µM and 73.5 µM: TGI (HOP-62 NSCLC)
85.5 µM and > 100 µM: TGI (MOLT-4 leukemia)
> 100 µM and 73.1 µM: TGI (OVCAR-8 ovarian)
> 100 µM: TGI (IGROV1 ovarian) | TGI (SN12C renal) | TGI (M14 melanoma) | TGI (UACC-62 melanoma) | TGI (HCT-116 colon) | TGI (DU-145 prostate) | TGI (RXF 393 renal) | TGI (SK-MEL-5 melanoma) | TGI (HCC-2998 colon) | TGI (OVCAR-3 ovarian) | TGI (COLO 205 colon) | TGI (SK-MEL-28 melanoma) | TGI (786-0 renal) | TGI (HT29 colon) | TGI (SNB-19 CNS) | TGI (HCT-15 colon) | TGI (A498 renal) | TGI (PC-3 prostate) | TGI (CAKI-1 renal) | TGI (NCI-H460 lung) | TGI (MDA-MB-231 breast) | TGI (MCF7 breast) | TGI (SK-OV-3 ovarian) | TGI (ACHN renal) | TGI (MDA-MB-435) | TGI (OVCAR-4 ovarian) | TGI (NCI-H522 lung) | TGI (EKVX NSCLC) | TGI (SNB-75 CNS) | TGI (T-47D breast) | TGI (SW-620 colon) | TGI (BT-549 breast) | TGI (OVCAR-5 ovarian) | TGI (HOP-92 NSCLC) | TGI (HS 578T breast) | TGI (A549 NSCLC) | TGI (TK-10 renal) | TGI (UO-31 renal) | TGI (NCI-H23 lung) | TGI (MDA-N) | TGI (U251 CNS) | TGI (SF-295 CNS)
99.2 µM and 84.4 µM: TGI (HL-60(TB) leukemia)
> 100 µM and 62.2 µM: TGI (KM12 colon)
51.8 µM and 31.6 µM: TGI (LOX IMVI melanoma)
74.4 µM and 87.5 µM: TGI (CCRF-CEM leukemia)
> 100 µM and 46.3 µM: TGI (K-562 leukemia)
inactive: GI50 (RXF 393 renal) > 100 µM and 43 µM | GI50 (COLO 205 colon) > 100 µM and 37.2 µM | GI50 (K-562 leukemia) > 100 µM and 19.8 µM | GI50 (786-0 renal) 44.6 µM and > 100 µM | GI50 (HT29 colon) > 100 µM and 32.8 µM | GI50 (HCT-15 colon) > 100 µM and 49 µM | GI50 (SF-268 CNS) 14.5 µM and 34.8 µM | GI50 (SW-620 colon) > 100 µM and 35.5 µM | GI50 (BT-549 breast) 68.9 µM and 26.8 µM

C[N+]1(CC[N+]2(C)CCCC2c2cccnc2)CCCC1c1cccnc1 (centres undefined)
86.9 µM: TGI (EKVX NSCLC)
90.7 µM: TGI (786-0 renal)
> 100 µM: TGI (IGROV1 ovarian) | TGI (SN12C renal) | TGI (M14 melanoma) | TGI (UACC-62 melanoma) | TGI (HCT-116 colon) | TGI (DU-145 prostate) | TGI (RXF 393 renal) | TGI (SK-MEL-5 melanoma) | TGI (HCC-2998 colon) | TGI (OVCAR-3 ovarian) | TGI (COLO 205 colon) | TGI (KM12 colon) | TGI (SK-MEL-28 melanoma) | TGI (OVCAR-8 ovarian) | TGI (K-562 leukemia) | TGI (HT29 colon) | TGI (SF-539 CNS) | TGI (SNB-19 CNS) | TGI (HCT-15 colon) | TGI (SR leukemia) | TGI (NCI/ADR-RES ovarian) | TGI (A498 renal) | TGI (UACC-257 melanoma) | TGI (PC-3 prostate) | TGI (MOLT-4 leukemia) | TGI (HOP-62 NSCLC) | TGI (CAKI-1 renal) | TGI (NCI-H460 lung) | TGI (MDA-MB-231 breast) | TGI (MCF7 breast) | TGI (SK-OV-3 ovarian) | TGI (ACHN renal) | TGI (LOX IMVI melanoma) | TGI (SF-268 CNS) | TGI (MDA-MB-435) | TGI (SK-MEL-2 melanoma) | TGI (OVCAR-4 ovarian) | TGI (NCI-H522 lung) | TGI (SNB-75 CNS) | TGI (T-47D breast) | TGI (SW-620 colon) | TGI (RPMI-8226 leukemia) | TGI (BT-549 breast) | TGI (OVCAR-5 ovarian) | TGI (HOP-92 NSCLC) | TGI (HS 578T breast) | TGI (A549 NSCLC) | TGI (TK-10 renal) | TGI (UO-31 renal) | TGI (MALME-3M melanoma) | TGI (NCI-H23 lung) | TGI (MDA-N) | TGI (U251 CNS) | TGI (SF-295 CNS)

N#CCCN(C(=O)Nc1ccc(NC(=O)N(CCC#N)c2ccccc2)cc1)c1ccccc1
> 100 µM: TGI (IGROV1 ovarian) | TGI (SN12C renal) | TGI (M14 melanoma) | TGI (UACC-62 melanoma) | TGI (HCT-116 colon) | TGI (DU-145 prostate) | TGI (RXF 393 renal) | TGI (SK-MEL-5 melanoma) | TGI (HCC-2998 colon) | TGI (OVCAR-3 ovarian) | TGI (COLO 205 colon) | TGI (KM12 colon) | TGI (SK-MEL-28 melanoma) | TGI (OVCAR-8 ovarian) | TGI (K-562 leukemia) | TGI (786-0 renal) | TGI (HT29 colon) | TGI (SNB-19 CNS) | TGI (HCT-15 colon) | TGI (SR leukemia) | TGI (HL-60(TB) leukemia) | TGI (NCI/ADR-RES ovarian) | TGI (A498 renal) | TGI (PC-3 prostate) | TGI (MOLT-4 leukemia) | TGI (HOP-62 NSCLC) | TGI (CAKI-1 renal) | TGI (NCI-H226 lung) | TGI (NCI-H460 lung) | TGI (MDA-MB-231 breast) | TGI (MCF7 breast) | TGI (SK-OV-3 ovarian) | TGI (ACHN renal) | TGI (LOX IMVI melanoma) | TGI (SF-268 CNS) | TGI (MDA-MB-435) | TGI (SK-MEL-2 melanoma) | TGI (OVCAR-4 ovarian) | TGI (NCI-H522 lung) | TGI (EKVX NSCLC) | TGI (SNB-75 CNS) | TGI (T-47D breast) | TGI (SW-620 colon) | TGI (RPMI-8226 leukemia) | TGI (BT-549 breast) | TGI (OVCAR-5 ovarian) | TGI (HS 578T breast) | TGI (A549 NSCLC) | TGI (UO-31 renal) | TGI (MALME-3M melanoma) | TGI (NCI-H23 lung) | TGI (MDA-N) | TGI (U251 CNS) | TGI (SF-295 CNS)
